Measurements reported in US5872115A, “2-ureido-benzamide derivatives” (Grelan Pharmaceutical Co. Ltd., priority 1995, dated 1999).

Columns and labels:
[1] = Acute toxicity, male ICR strain mouse; type: in vivo; conditions: 1000 mg/kg orally, seven days after administration
Protocol: (1) Acute toxicity: Nine compounds (Example Nos. 1, 2, 5, 6, 12, 19, 28, 31 and 45) were tested by using male ICR strain mouse weighing 23.0±0.7 g.

ACAT of HepG2 microsome = test: In-vitro test using Hep G2 microsome (ACAT inhibition); type: biochemical, human
Protocol: (1) In-vitro Test Using Hep G2 Microsome
ACAT enzyme fraction was prepared from microsome of human derived hepatoma Hep G2 cell according to Sandra's method [Journal of Lipid Research, 27, 875 (1986)].
Microsome was suspended at a concentration of 200 μg protein/20 μl in 0.1M phosphate buffer solution (pH7.4) and the suspension was preincubated at 37° C. for 5 minutes after addition of 10 μl of each test compound dissolved in 0.1M phosphate buffer solution containing bovine serum albmin (BSA). Then, the reaction was initiated by the addition of 5 nmoles of labeled [^14 C]-oleoyl-CoA dissolved in 20 μl of the said phosphate buffer solution containing BSA and the reaction was stopped by the addition of 20 μl of 2N HCl after 10 minutes. [^14 C] cholesterol-oleate formed was separated by thin-layer chromatography and the radioactivity was counted with liquid scintillation counter.
(§1) ACAT inhibitory activities of the test compounds were shown as IC50 values.

ACAT of THP-1 cells = target: T1, ACAT of THP-1 cells (Homo sapiens, UniProt P35610); test: In-vitro test using THP-1 intact cell (ACAT inhibition); type: cell-based; conditions: read-out: IC50 THP1 (intact cell)
T1 construct: differentiated into macrophage-like cells by phorbol ester; endogenous in cells; host or cells: THP-1 (human leukemia), intact cells differentiated by phorbol ester
T1 sequence (P35610 1-550): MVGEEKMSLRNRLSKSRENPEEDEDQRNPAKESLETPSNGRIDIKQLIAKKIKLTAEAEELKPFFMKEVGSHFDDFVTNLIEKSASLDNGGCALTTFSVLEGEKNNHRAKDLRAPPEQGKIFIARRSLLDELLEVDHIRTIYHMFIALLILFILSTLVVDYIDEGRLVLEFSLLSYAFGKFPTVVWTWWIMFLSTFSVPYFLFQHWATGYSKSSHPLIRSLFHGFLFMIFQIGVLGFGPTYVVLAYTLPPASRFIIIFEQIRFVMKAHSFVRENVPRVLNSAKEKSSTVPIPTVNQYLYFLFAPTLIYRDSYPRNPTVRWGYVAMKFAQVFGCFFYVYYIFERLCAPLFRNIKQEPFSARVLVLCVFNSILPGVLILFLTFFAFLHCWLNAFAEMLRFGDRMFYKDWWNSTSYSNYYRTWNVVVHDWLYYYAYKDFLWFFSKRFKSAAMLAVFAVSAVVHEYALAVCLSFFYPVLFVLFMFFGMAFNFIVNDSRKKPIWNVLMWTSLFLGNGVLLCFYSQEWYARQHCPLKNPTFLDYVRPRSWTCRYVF
Protocol: (2) In-vitro Test Using THP-1 Intact Cell
About 2 million cells of human leukemia cell line, THP-1 were seeded in a well with 2 ml of medium and differentiated into macrophage-like cells by phorbol ester. Then, the cells were washed with phosphate-buffered saline (PBS) solution and the medium was replaced by fresh medium supplemented with 10% of lipoprotein-deficient serum. After the addition of each test compound dissolved in dimethyl sulfoxide and 100 μg protein-containing human low density lipoprotein (LDL), the reaction was initiated by the addition of 10 nmoles of labeled [^14 C]oleic acid and 10 nmoles of oleic acid complexed with BSA in PBS solution. After 22 hours, the reaction was stopped by removal the medium and CHCl3 -MeOH (2:1) were added to the cell suspension in order to extract lipids.
Intracellular [^14 C] cholesterol-oleate formed was separated by thin-layer chromatography and the radioactivity was counted with lipid scintillation counter.
as §1

THP-1 microsomal ACAT [2] = target: T2, THP-1 microsomal ACAT (Homo sapiens, UniProt P35610); test: Bioavailability assessment of ACAT inhibitors by their ex vivo activity (serum of dosed mice on THP-1 microsomal ACAT); type: in vivo; conditions: female mice, 30 mg/kg per os, 1% CMC-Na 0.2% Tween 80; maximum inhibition by serum
T2 construct: ACAT enzyme fraction was prepared from microsome of human leukemia THP-1 cell; endogenous in cells; host or cells: THP-1 (human leukemia), microsomes
T2 sequence (P35610 1-550): T1 sequence (P35610 1-550)
Protocol: (5) Bioavailability Assessment of ACAT Inhibitors by Their <<ex vivo>> Activity
[…] Blood samples were collected 0.5, 1, 1.5, 2, 6 hour postdose. Serum were harvested after gentle centrifugation and stored at -20.
The following day, 10 μl serum were preincubated at 37 for 5 minutes with 20 μl of THP-1 microsomal ACAT and then incubated 10 minutes with 20 μl of radiolabeled oleoyl-CoA as described above in method (4). The serum is used instead of the drug solution.
ACAT inhibitory activities of the test compounds were shown as maximum inhibition percentages (Imax).

THP-1 microsomal ACAT [3] = target: T2, THP-1 microsomal ACAT; test: In vitro test using THP-1 microsome (ACAT inhibition); type: biochemical; conditions: THP-1 microsome; read-out: IC50 THP1 microsome
Protocol: (4) In Vitro Test Using THP-1 Microsome
Then, the reaction was initiated by the addition of 5 nmoles of labeled [^14 C] oleoyl-CoA dissolved in 20 μl of said phosphate buffer solution containing BSA and the reaction was stopped by the addition of 20 μl of 2N HCl after 10 minutes. [^14 C] cholesterol-oleate formed was separated by thin-layer chromatography and the radioactivity was counted with liquid scintillation counter.

ACAT of macrophages = test: In vivo test using peritoneal macrophages in C57BL/6J mice (ACAT inhibition); design: species or system mouse; conditions: female C57BL/6J mice, 30 mg/kg/day per os for 4 days
Protocol: (6) In Vivo Test Using Peritoneal Macrophages in C57BL/6J Mice
A standard pellet diet fed female C57BL/6J mice were administered at 10 a.m. per os 30 mg/kg/day of oral suspension (1% CMC-Na 0.2% Tween 80) for 4 days. Thioglycollate and [^14 C] cholesterol were injected […], mice were sacrificed for the collection of peritoneal macrophages. Lipid was extracted, formed [^14 C] cholesterol-ester was separated by thin-layer chromatography and radioactivity was counted as described above in method (3).
In vivo ACAT inhibitory activities on macrophages were expressed as percentage of inhibition compared to control group.

| Imax Ex vivo (THP-1 microsomal ACAT [2]) | IC50 (THP-1 microsomal ACAT [3]) | Structure (SMILES) | macroscopic changes on any organs at autopsy [1] | IC50 (ACAT of HepG2 microsome) | IC50 (ACAT of THP-1 cells) | Inhibition rate (macrophages) (ACAT of macrophages; Experiment 1) | Inhibition rate (macrophages) (ACAT of macrophages; Experiment 2) |
| --- | --- | --- | --- | --- | --- | --- | --- |
|  |  | CCCCNC(=O)Nc1ccccc1C(=O)NCC1CCN(C(c2ccccc2)c2ccccc2)CC1 [Example 2, 2-(N'-n-Butylureido)-N-[(1-diphenylmethylpiperidin-4-yl)methyl]benzamide] | no macroscopic changes were observed | 1000 nM | 100 nM |  |  |
|  |  | CCCCCNC(=O)Nc1ccccc1C(=O)NCC1CCN(C(c2ccccc2)c2ccccc2)CC1 [Example 3, 2-(N'-n-Pentylureido)-N-[(1-diphenylmethylpiperidin-4-yl)methyl]benzamide] |  | 900 nM | 100 nM |  |  |
|  |  | CCCCCCNC(=O)Nc1ccccc1C(=O)NCC1CCN(C(c2ccccc2)c2ccccc2)CC1 [Example 4, 2-(N'-n-Hexylureido)-N-[(1-diphenylmethylpiperidin-4-yl)methyl]benzamide] |  | 900 nM | 90 nM |  |  |
|  |  | CCCCCCCCNC(=O)Nc1ccccc1C(=O)NCC1CCN(C(c2ccccc2)c2ccccc2)CC1 [Example 6, 2-(N'-n-Octylureido)-N-[(1-diphenylmethylpiperidin-4-yl)methyl]benzamide] | no macroscopic changes were observed | 1600 nM | 50 nM |  |  |
|  |  | CCCCCCCCCCNC(=O)Nc1ccccc1C(=O)NC1CCN(C(c2ccccc2)c2ccccc2)CC1 [Example 12, 2-(N'-n-Decylureido)-N-(1-diphenylmethylpiperidin-4-yl)benzamide] | no macroscopic changes were observed | 8000 nM | 700 nM |  |  |
|  |  | CCCCCCCNC(=O)Nc1ccc(O)cc1C(=O)NCCC(c1ccccc1)c1ccccc1 [Example 19, 2-(N'-n-Heptylureido)-5-hydroxy-N-(3,3-diphenylpropyl)benzamide] | no macroscopic changes were observed | 3600 nM | 100 nM |  |  |
|  |  | CCCCCCCNC(=O)Nc1ccccc1C(=O)NCCC1CCN(C(c2ccccc2)c2ccccc2)CC1 [Example 28, 2-(N'-n-Heptylureido)-N-[2-(1-diphenylmethylpiperidin-4-yl)ethyl]benzamide] | no macroscopic changes were observed | 1200 nM | 100 nM |  |  |
|  |  | CCCCCNC(=O)Nc1ccccc1C(=O)NCCC1CCN(C(c2ccccc2)c2ccccc2)CC1 [Example 29, 2-(N'-n-Pentylureido)-N-[2-(1-diphenylmethylpiperidin-4-yl)ethyl]benzamide] |  | 1600 nM | 200 nM |  |  |
|  |  | CCCCCCNC(=O)Nc1ccccc1C(=O)NCCC1CCN(C(c2ccccc2)c2ccccc2)CC1 [Example 30, 2-(N'-n-Hexylureido)-N-[2-(1-diphenylmethylpiperidin-4-yl)ethyl]benzamide] |  | 1200 nM | 200 nM |  |  |
|  |  | CCCCCCCNC(=O)Nc1ccc(N(C)C)cc1C(=O)NC1CCN(C(c2ccccc2)c2ccccc2)CC1 [Example 31, 2-(N'-n-Heptylureido)-5-dimethylamino-N-(1-diphenylmethylpiperidin-4-yl)-benzamide] | no macroscopic changes were observed | 800 nM | 200 nM |  |  |
|  |  | CCCCCCCNC(=O)Nc1ccccc1C(=O)NC1CCN(C(c2ccccc2)c2ccccc2)CC1 [Example 45, 2-(N'-n-Heptylureido)-N-(1-diphenylmethylpiperidin-4-yl)benzamide] | no macroscopic changes were observed | 2800 nM | 800 nM |  |  |
| 68.52% | 50 nM | CCCCNC(=O)Nc1ccc(N(C)C)cc1C(=O)NCC1CCN(C(c2ccccc2)c2ccccc2)CC1 [Example 63, 2-(N'-n-Butylureido)-5-dimethylamino-N-[(1-diphenylmethylpiperidin-4-yl)-methyl]-benzamide] |  |  |  | 72.3% | 61.0% |
| 77.59% | 80 nM | CCCNC(=O)Nc1ccc(N(C)C)cc1C(=O)NCC1CCN(C(c2ccccc2)c2ccccc2)CC1 [Example 66, 5-Dimethylamino-2-(N'-n-propylureido)-N-[(1-diphenylmethylpiperidin-4-yl)methyl]-benzamide] |  |  |  | 73.5% |  |
|  | 60 nM | CCCCNC(=O)Nc1ccc(N2CCOCC2)cc1C(=O)NCC1CCN(C(c2ccccc2)c2ccccc2)CC1 [Example 70, 2-(N'-n-Butylureido)-5-(morpholin-4-yl)-N-[(1-diphenylmethylpiperidin-4-yl)methyl]-benzamide] |  |  |  |  | 73.0% |
| 81.1% | 90 nM | CCCNC(=O)Nc1ccc(N2CCOCC2)cc1C(=O)NCC1CCN(C(c2ccccc2)c2ccccc2)CC1 [Example 71, 5-(Morpholin-4-yl)-2-(N'-n-propylureido)-N-[(1-diphenylmethylpiperidin-4-yl)methyl]-benzamide] |  |  |  |  | 73.5% |
| 20.45% | 80 nM | CCCCCCCNC(=O)Nc1ccc(N(C)C)cc1C(=O)NCC1CCN(Cc2ccccc2-c2ccccc2)CC1 [Example 96, 2-(N'-n-Heptylureido)-5-dimethylamino-N-[1-(2-biphenylmethylpiperidin-4-yl)methyl]-benzamide] |  |  |  |  |  |
| 39.01% | 40 nM | CCCCCNC(=O)Nc1ccc(N(C)C)cc1C(=O)NCC1CCN(C(c2ccccc2)c2ccccc2)CC1 [Example 100, 5-Dimethylamino-2-(N'-n-pentylureido)-N-[(1-diphenylmethylpiperidin-4-yl)methyl]benzamide] |  |  |  |  |  |
| 63.56% | 90 nM | CCCCNC(=O)Nc1ccc(S(C)(=O)=O)cc1C(=O)NCC1CCN(C(c2ccccc2)c2ccccc2)CC1 [Example 111 (b), 2-(N'-n-butylureido)-5-methylsulfonyl-N-[(1-diphenylmethylpiperidin-4-yl)-methyl]benzamide] |  |  |  |  |  |
